Reference: US20250002450A1, “CATIONIC STEROID COMPOUNDS, METHOD OF OBTAINING THEREOF, FORMULATIONS COMPRISING THEREOF AND THEIR USES” (UNIVERSIDADE DO PORTO, priority 2021, published 2025)
≈ marks a conversion by molar mass, not a printed value.

Tests used:
[1] = tested on: Escherichia coli ATCC 25922; assay: Antibacterial MIC/MBC (broth microdilution); format: cell-based; conditions: Escherichia coli ATCC 25922
Text: Twelve reference bacterial strains and nine MDR clinically relevant bacterial strains were used in this study. Gram-negative bacteria comprised reference strains E. coli ATCC 25922, K. pneumoniae ATCC 13883, Salmonella enterica serovar Typhimurium CECT 443, P. aeruginosa ATCC 27853, A. baumannii ATCC 19606, C. jejuni ATCC 33560 (ATCC—American Type Culture Collection; CECT—Colección Espanola de Cultivos Tipo); clinical isolates E. coli SA/2, an extended-spectrum β-lactamase (ESBL)-producing strain and P. aeruginosa 33b, a pan-drug-resistant isolate; and animal isolates C. jejuni P5/4, a ciprofloxacin-resistant strain, C. jejuni 4432, C. jejuni 4433, C. jejuni 4448, and E. coli 2252, a COL-resistant strain [42]. Gram-positive strains included S. aureus ATCC 29213, E. faecalis ATCC 29212, S. pyogenes ATCC 19615, and environmental isolates methicillin-resistant S. aureus (MRSA) 66/1 [43], and VAN-resistant enterococci (VRE) E. faecalis B3/101 [44]. Gram-negative fish pathogens Yersinia ruckeri ATCC 29473, Listonella anguillarum ATCC 1924, and Tenacibaculum maritimum ATCC 43397 were also included.
Strains were kept in Trypto-Casein Soy agar (TSA—Biokar Diagnostics, Allone, Beauvais, France) slants and, before each assay, were sub-cultured in Mueller-Hinton agar (MHA—Biokar Diagnostics, Allone, Beauvais, France). Y. ruckeri ATCC 29473 and L. anguillarum ATCC 1924 were kept in Nutrient Agar (Condalab, Madrid, Spain) and T. maritimum ATCC 43397 was kept in TMM agar (Condalab, Madrid, Spain), and were sub-cultured in the respective culture media before each assay. For S. pyogenes ATCC 19615, CAMHB was supplemented with 3.75% lysed horse blood (LBH—Oxoid, Basingstoke, England), whereas for C. jejuni it was supplemented with 2.5% LHB. Colony-forming unit counts of the inoculum were conducted to determine the initial inoculum size (which should be approximately 5×10^5 CFU/mL). Sterility and growth controls were included in each assay. The 96-well U-shaped untreated polystyrene microtiter plates were incubated for 20 h at 37 degrees C. (42 degrees C. for C. jejuni, in a microaerophilic atmosphere) and the minimal inhibitory concentration (MIC) was determined as the lowest concentration of compound that prevented visible growth. The minimal bactericidal concentration (MBC) was determined by spreading 100 μL of the content of the wells with no visible growth on MH plates. The MBC was determined as the lowest concentration of compound that killed 99.9% of the initial inoculum after overnight incubation at 37 degrees C. Two independent assays were performed for reference and MDR strains.
An initial screening of the antibacterial activity of the compounds was performed by the Kirby-Bauer disk diffusion method, as recommended by the Clinical and Laboratory Standards Institute (CLSI). Briefly, sterile 6 mm blank paper disks (Oxoid, Basingstoke, England) impregnated with 15 μg of each compound were placed on inoculated MH agar plates. A blank disk with dimethylsulfoxide (DMSO) was used as a negative control. MH inoculated plates were incubated for 18-20 h at 37 degrees C. At the end of incubation, the inhibition halos where measured. The MIC was used to determine the antibacterial activity of each compound, in accordance with the recommendations of the CLSI. Two-fold serial dilutions of the compounds were prepared in Mueller-Hinton Broth 2 (MHB2—Sigma-Aldrich, St. Louis, MO, USA) within the concentration range of 0.062-64 μg/mL. CTX ranging between 0.031-16 μg/mL was used as a control. Sterility and growth controls were included in each assay. Purity checks and colony counts of the inoculum suspensions were also performed in order to ensure that the final inoculum density closely approximates the intended number (5×10^5 CFU/mL). The MIC was determined as the lowest concentration of compound that inhibited growth of the bacteria. The MBC was assessed by spreading 10 μL of culture collected from wells showing no visible growth on MH agar plates. […]

E. coli ATCC 25922 [2] = assay: Membrane integrity, propidium iodide influx assay (SYTO 9/PI); format: cell-based, Escherichia coli; conditions: 0, 1, 18 h
Procedure: The influx of PI in E. coli ATCC 25922 treated with 2×MIC, MIC, and ½×MIC of compound 1 was evaluated using a commercial kit that includes fluorescent nucleic acid stains SYTO® 9 and PI. SYTO® 9 can enter cells with intact or damaged membranes, generally labeling both, whereas PI only penetrates cells with severe membrane lesions, causing a reduction in SYTO® 9 fluorescence when both dyes are present.
In these assays, COL and AMP were used as controls. COL is a polycationic antimicrobial peptide with a complex mode of action, that ultimately solubilizes the bacterial cell membrane. AMP is an aminopenicillin that inhibits cell wall synthesis by inhibiting penicillin-binding proteins. E. coli ATCC 25922 cells were treated with compound 1 and, at several time-points (0, 1, and 18 h), samples were taken, and SYTO® 9/PI ratio was determined ([FIG. 4]). The entrance of PI is reflected in a reduction of this ratio.
Briefly, E. coli ATCC 25922 colonies from overnight cultures in MHA were suspended in CAMHB to prepare an inoculum with a final concentration of approximately 5×10^5 CFU/mL. The tubes were incubated overnight at 36° C. in a water bath with shaking. Following this, the cell suspensions were centrifuged at 3500 rpm for 15 min, the supernatant was removed, the cells were carefully resuspended in fresh CAMHB and the suspension was adjusted to 0.5 McFarland. An aliquot of this suspension was then added to each tube of CAMHB alone (control) or CAMHB plus an appropriate amount of test compound. […] The tubes were incubated at 36 degrees C. in a water bath with shaking and, at pre-established time points (0, 1, and 18 h), […] aliquots were retrieved for further analysis. After the exposure time, cells were washed two times, resuspended in 0.85% NaCl, and 100 μL of each cell suspension was distributed in the wells of a microtiter plate, in triplicate. 100 μL of a mixture of 30 μM PI and 5 μM SYTO® 9 prepared in ultrapure water were added to each well, and the plates were incubated at room temperature, in the dark, for 15 min. The fluorescence intensity of the stained bacterial suspensions was determined using a microplate reader (Synergy HT, BioTek Instruments, Winooski, VT, USA) by two consecutive measurements with excitation wavelength 485 nm and emission wavelength 528 nm (SYTO® 9) or 590 nm (PI). Data were analyzed by subtracting background fluorescence from each sample, dividing the fluorescence intensity of SYTO® 9 by fluorescence intensity of PI, and the results are presented as a percentage of control. Three independent assays were performed in triplicate for each experimental condition.

E. coli ATCC 25922 [3] = assay: Enzymatic/metabolic activity, MTT assay; format: cell-based, Escherichia coli; conditions: 0, 1, 18 h
Procedure: To determine whether compound 1 could also affect enzymatic activity, 2-(4,5-dimethyl-2-thiazolyl)-3,5-diphenyl-2H-tetrazolium bromide (MTT) assay was performed. This assay can also be used as an indirect measure of cellular viability, as tetrazolium salts are reduced to purple formazan by metabolically active cells. E. coli ATCC 25922 cells were treated with compound 1 and COL and AMP were used as controls, as described above. Measurements were made at 0, 1, and 18 h.
Enzymatic activity was evaluated by the MTT assay, as previously described, with some modifications. Cell suspensions of E. coli ATCC 25922 were prepared as described above, as well as test conditions and controls. At each time point (0, 1, and 18 h), 500 μL aliquots were collected, centrifuged at 3500 rpm for 10 min, the supernatant was removed, and 300 μL of MTT solution (0.5 mg/mL in CAMHB, at 36 degrees C.) (Thiazolyl Blue Tetrazolium Bromide, Alfa Aesar, Ward Hill, MA, USA) were added. After a 30 min incubation at 36° C., the insoluble formazan product resulting from the conversion of MTT by metabolically active cells was solubilized with 300 μL of DMSO. 100 μL of each sample were transferred in duplicate to the wells of a microtiter plate and the extent of the reduction of MTT to formazan was quantified by measuring the absorbance at 570 nm (Thermo Scientific Multiskan® EX, Thermo Fisher Scientific, Waltham, MA, USA). Three independent assays were performed in duplicate, and results are expressed as a percentage of untreated control.

colistin
MIC [1]: 1 µg/mL
reduction in SYTO 9/PI ratio vs untreated control (E. coli ATCC 25922 [2]; 1 μg/mL): only a significant reduction at 1 h
reduction in SYTO 9/PI ratio vs untreated control (E. coli ATCC 25922 [2]; 8 μg/mL): statistically significant
metabolic activity (MTT) vs untreated control (E. coli ATCC 25922 [3]; 1 μg/mL): only a significant reduction at 1 h
metabolic activity (MTT) vs untreated control (E. coli ATCC 25922 [3]; 8 μg/mL): significant reduction of metabolic activity at all time points

CC1(C)S[C@@H]2[C@H](NC(=O)[C@H](N)c3ccccc3)C(=O)N2[C@H]1C(=O)O [AMP]
MIC [1]: 4 µg/mL (≈ 11.4 µM)
reduction in SYTO 9/PI ratio vs untreated control (E. coli ATCC 25922 [2]; 4 μg/mL): not
metabolic activity (MTT) vs untreated control (E. coli ATCC 25922 [3]; 4 μg/mL): did not affect the metabolic activity
